Experimental data as given in patent US11911353B2, “Fatty acid synthase inhibitor and application thereof” (Jiangnan University, priority 2019, dated 2024).

Assays:
[1] = system: tumor cells 22RV1, PC-3, HT-29, Hela, Hep G2, CaCo-2 and HCT116; test: MTT proliferation of various tumor cells at single concentration (FIG. 2); type: cell-based; details: 10 μM, 72 hours, 7 different tumor cells
Excerpt: Cell survival rate=(OD570−OD630)/(OD570 negative control−OD630 negative control); wherein, OD570: OD570 value of each treatment group; OD630: OD630 value of each treatment group; OD570 control: OD570 value of the negative control group; OD630 control: OD630 value of the negative control group.

[2] = system: prostate cancer cells PC-3; test: Growth cycle of PC-3 cells, PI staining flow cytometry (FIG. 3); type: cell-based; details: 10 μM treatment group, 24 hours; control group 10.34%
Excerpt: […]

[3] = system: prostate cancer cells PC-3; test: Fatty acid content and composition by GC/MS, PC-3 (FIG. 5); type: cell-based; details: PC-3, 20 μM, 24 hours
Excerpt: […]

[4] = system: colon cancer cells HCT116; test: Fatty acid content and composition by GC/MS, HCT116 (FIG. 5); type: cell-based; details: HCT116, 20 μM, 24 hours
Excerpt: […]

preadipocytes OP9 = test: Lipid droplet formation in preadipocytes OP9, oil red O staining (FIG. 6); type: cell-based; details: 20 μM, differentiation with 1 μM rosiglitazone, OD510
Experimental: The effect of the compound shown as the formula I-1 on preadipocytes OP9 is detected: • (1) The cancer cells in the logarithmic growth phase are taken and inoculated into a 6 cm culture dish with the inoculation density of 2*10^6 cells, and incubated under 5% CO2 at 37° C. • (2) After cell adherence, 6 ml of 10% FBS culture medium containing 20 μM of the compound shown as the formula I is added into each dish with the culture medium as a negative control; cerulenin as a positive control; and 1 μM rosiglitazone (RSG) is used for differentiation. • (3) To observe the formation of lipid droplets, cells were incubated with 4% paraformaldehyde solution for 30 min at room temperature, washed with phosphate-buffered saline (PBS), and then stained with 0.5% oil red O in 60% isopropanol. • (4) After washing with distilled water, the stained cells were observed through a microscope, and then oil red O was extracted with isopropanol for quantification. This quantification was performed by measuring the absorbance of isopropanol solutions of oil red O at 510 nm.

nematodes = test: Accumulation of lipid droplets in nematodes, oil red staining (FIG. 7); type: in vivo; details: 10 μM, 9 days
Experimental: Nematodes are taken and resuspended in an M9 buffer, 3 ml of nematode suspension is added into each test tube, the compound shown as the formula I is added into an experimental group to make the final concentration reach 10 μM, a group with no addition of the compound shown as the formula I is used as a control, the suspension is subjected to shaking culture on a shaker at 200 rpm/min, oil red staining is carried out after 9 days, the suspension is placed on a glass slide for observing the lipid droplet condition under a microscope.

## O=C(CCCC(=O)Nc1ccc(Br)cc1)N/N=C/c1cc(Br)ccc1O [Compound I-1]
[1]
  effect on proliferation of tumor cells: significantly improved inhibitory effect on tumor proliferation
[2]
  proportion of PC3 cells in S phase: 19.10%
[3]
  fatty acid content of 16:0: lower than that of the control group
  total fatty acid content: significantly lower than that of the control group
[4]
  fatty acid content of 16:0: lower than that of the control group
  total fatty acid content: significantly lower than that of the control group
Preadipocytes OP9
  number of lipid droplets in cells OP9: reduced significantly
nematodes
  accumulation of lipid droplets in nematodes: significantly lower than that of the control group
